Test results: patent US9480722B2, “Method of alleviating or treating periodontal disease” (priority 2012, dated 2016)

Tests used:
Porphyromonas gingivalis [1] = experiment: Determination of minimal bactericidal concentration (MBC), plating on sBHI agar with 5% defibrinated sheep blood; format: cell-based
Experimental: Porphyromonas gingivalis was purchased from Food Industry Research and Development Institute ([…], Taiwan) with the accession number BCRC 14417. After thawing from frozen tube, Porphyromonas gingivalis was activated in the supplemented brain heart infusion broth, and cultured at 37° C. anaerobic condition (80% N2, 10% H2, 10% CO2) for 24 hours to 48 hours. […] Chlorhexidine was used as positive control. […]. After Porphyromonas gingivalis with said solution of Antrodia camphorata 95% ethanol extract or chlorhexidine were cultured at 37° C. under anaerobic condition (80% N2, 10% H2, 10% CO2) for 48 hours, 10 μl aliquot […] was added to supplemented brain heart infusion agar with 5% defibrinated sheep blood. Then, broth was gently coated uniformly onto supplemented brain heart infusion agar with 5% defibrinated sheep blood by a triangular sterilized glass rod and cultured at 37° C. anaerobic condition (80% N2, 10% H2, 10% CO2) for 5 days. […] ([…] Castro et al., 2009, Bioorganic & Medicinal Chemistry, 17:5332-5335)

Porphyromonas gingivalis [2] = experiment: Determination of minimal inhibitory concentration (MIC), broth microplate, absorbance at 600 nm; format: cell-based; settings: BCRC14417, P. gingivalis BCRC 14417, 24 hours anaerobic, 37° C., concentration at absorbance ≦0.5 at 600 nm
Experimental: Porphyromonas gingivalis was purchased from Food Industry Research and Development Institute ([…], Taiwan) with the accession number BCRC 14417. After thawing from frozen tube, Porphyromonas gingivalis was activated in the supplemented brain heart infusion broth, and cultured at 37° C. anaerobic condition (80% N2, 10% H2, 10% CO2) for 24 hours to 48 hours. […] Chlorhexidine was used as positive control. The 2.5% (v/v) dimethyl sulfoxide was used as normal control.

MIC (Porphyromonas gingivalis [2]): 4 µg/mL
Compound: [H]/N=C(\N/C(=N/[H])NCCCCCCNC(=N)NC(=N)Nc1ccc(Cl)cc1)Nc1ccc(Cl)cc1 [Chlorhexidine, Chlorhexidine digluconate]
MBC (Porphyromonas gingivalis [1]; Porphyromonas gingivalis, BCRC14417): 4 µg/mL
colony growth on supplemented brain heart infusion agar with 5% defibrinated sheep blood (Porphyromonas gingivalis [1]; concentration above 4 μg/ml, FIG. 3): no colony growing
